Measured values published in paper PMC9489211, “Regulation of pulmonary surfactant by the adhesion GPCR GPR116/ADGRF5 requires a tethered agonist-mediated activation mechanism” (eLife, 2022).
Where two headings read alike, the source gives them in different places. Where a SMILES comes first, the peptide text is derived from it. Where no end group is shown, it is not given here. [ ]: non-standard residue; d: D form. Nle = CCCC[C@H](N)C(=O)O

T1: full-length mGPR116 (HEK293 clone 3C) (Mus musculus, UniProt G5E8Q8)
T1 construct: expressed in transfected cells
T1 sequence (G5E8Q8 22-1348): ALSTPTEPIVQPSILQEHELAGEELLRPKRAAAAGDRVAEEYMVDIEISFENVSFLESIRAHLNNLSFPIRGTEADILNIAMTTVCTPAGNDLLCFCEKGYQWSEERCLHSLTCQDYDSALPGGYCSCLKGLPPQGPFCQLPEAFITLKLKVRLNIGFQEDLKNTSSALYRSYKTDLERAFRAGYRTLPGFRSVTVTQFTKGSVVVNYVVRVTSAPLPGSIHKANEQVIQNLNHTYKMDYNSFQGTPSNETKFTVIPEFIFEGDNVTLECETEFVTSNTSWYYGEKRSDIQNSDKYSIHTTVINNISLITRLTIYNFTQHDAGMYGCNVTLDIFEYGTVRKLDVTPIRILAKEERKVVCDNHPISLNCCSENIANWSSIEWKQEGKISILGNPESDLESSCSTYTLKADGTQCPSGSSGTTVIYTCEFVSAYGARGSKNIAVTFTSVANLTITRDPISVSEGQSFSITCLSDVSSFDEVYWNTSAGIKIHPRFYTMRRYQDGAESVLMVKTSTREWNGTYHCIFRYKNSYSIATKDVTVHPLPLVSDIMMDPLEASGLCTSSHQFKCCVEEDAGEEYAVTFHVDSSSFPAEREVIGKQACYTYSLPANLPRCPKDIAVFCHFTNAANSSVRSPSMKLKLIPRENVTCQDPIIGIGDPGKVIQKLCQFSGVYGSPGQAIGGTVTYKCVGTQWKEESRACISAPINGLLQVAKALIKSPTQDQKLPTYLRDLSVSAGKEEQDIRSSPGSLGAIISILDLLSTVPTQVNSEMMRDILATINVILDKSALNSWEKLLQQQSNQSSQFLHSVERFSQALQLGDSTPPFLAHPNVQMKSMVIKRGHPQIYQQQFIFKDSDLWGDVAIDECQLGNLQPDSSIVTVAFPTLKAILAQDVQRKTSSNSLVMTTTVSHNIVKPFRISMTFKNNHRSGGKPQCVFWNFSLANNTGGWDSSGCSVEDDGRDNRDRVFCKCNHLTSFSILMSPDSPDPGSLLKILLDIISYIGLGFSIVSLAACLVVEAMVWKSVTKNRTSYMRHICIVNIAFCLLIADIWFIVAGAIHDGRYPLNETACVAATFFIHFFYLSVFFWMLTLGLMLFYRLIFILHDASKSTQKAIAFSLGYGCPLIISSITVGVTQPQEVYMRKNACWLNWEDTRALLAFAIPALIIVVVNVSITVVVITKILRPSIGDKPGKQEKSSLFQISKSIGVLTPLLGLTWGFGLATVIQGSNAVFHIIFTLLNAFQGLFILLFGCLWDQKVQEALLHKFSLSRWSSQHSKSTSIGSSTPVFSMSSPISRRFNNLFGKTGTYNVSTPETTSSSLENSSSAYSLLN

T2: full-length hGPR116 (HEK293 clone A6) (Homo sapiens, UniProt Q8IZF2)
T2 construct: expressed in transfected cells
T2 sequence (Q8IZF2 22-1346): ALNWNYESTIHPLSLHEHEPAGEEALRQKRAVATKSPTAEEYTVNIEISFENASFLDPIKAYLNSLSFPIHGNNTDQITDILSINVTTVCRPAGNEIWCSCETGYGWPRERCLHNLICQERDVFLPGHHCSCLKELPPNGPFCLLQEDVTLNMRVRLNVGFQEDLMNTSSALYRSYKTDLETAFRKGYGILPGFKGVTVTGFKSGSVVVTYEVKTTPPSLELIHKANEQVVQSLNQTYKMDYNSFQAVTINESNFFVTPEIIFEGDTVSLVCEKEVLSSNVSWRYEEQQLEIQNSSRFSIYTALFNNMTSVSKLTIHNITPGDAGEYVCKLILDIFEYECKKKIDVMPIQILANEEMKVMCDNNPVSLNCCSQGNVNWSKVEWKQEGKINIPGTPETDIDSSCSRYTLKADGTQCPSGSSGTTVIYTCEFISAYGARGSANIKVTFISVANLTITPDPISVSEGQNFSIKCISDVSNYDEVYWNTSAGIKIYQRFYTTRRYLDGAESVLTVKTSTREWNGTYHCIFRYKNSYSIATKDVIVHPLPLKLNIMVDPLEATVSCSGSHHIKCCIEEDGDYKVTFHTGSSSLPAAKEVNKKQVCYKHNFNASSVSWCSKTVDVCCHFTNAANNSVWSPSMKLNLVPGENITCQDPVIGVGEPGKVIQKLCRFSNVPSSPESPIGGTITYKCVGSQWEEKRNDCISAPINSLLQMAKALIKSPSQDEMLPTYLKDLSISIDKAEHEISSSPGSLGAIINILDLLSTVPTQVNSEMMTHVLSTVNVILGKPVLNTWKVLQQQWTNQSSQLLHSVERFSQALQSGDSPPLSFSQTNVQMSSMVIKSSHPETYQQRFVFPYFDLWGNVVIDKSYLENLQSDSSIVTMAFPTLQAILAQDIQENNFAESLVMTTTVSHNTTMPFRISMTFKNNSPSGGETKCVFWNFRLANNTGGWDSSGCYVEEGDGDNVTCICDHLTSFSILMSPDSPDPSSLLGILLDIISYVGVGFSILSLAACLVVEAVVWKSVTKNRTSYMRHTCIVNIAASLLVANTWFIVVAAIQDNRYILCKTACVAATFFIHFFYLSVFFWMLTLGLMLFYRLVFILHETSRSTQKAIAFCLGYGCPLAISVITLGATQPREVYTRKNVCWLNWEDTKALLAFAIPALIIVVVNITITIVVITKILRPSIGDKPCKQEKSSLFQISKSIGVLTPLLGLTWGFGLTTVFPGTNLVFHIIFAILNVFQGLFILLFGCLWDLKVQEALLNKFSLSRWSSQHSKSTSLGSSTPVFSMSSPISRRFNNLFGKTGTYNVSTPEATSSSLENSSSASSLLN

T3: mouse GPR116 full-length, V5 tagged, clone 1D8 (mouse) (UniProt G5E8Q8)
T3 sequence: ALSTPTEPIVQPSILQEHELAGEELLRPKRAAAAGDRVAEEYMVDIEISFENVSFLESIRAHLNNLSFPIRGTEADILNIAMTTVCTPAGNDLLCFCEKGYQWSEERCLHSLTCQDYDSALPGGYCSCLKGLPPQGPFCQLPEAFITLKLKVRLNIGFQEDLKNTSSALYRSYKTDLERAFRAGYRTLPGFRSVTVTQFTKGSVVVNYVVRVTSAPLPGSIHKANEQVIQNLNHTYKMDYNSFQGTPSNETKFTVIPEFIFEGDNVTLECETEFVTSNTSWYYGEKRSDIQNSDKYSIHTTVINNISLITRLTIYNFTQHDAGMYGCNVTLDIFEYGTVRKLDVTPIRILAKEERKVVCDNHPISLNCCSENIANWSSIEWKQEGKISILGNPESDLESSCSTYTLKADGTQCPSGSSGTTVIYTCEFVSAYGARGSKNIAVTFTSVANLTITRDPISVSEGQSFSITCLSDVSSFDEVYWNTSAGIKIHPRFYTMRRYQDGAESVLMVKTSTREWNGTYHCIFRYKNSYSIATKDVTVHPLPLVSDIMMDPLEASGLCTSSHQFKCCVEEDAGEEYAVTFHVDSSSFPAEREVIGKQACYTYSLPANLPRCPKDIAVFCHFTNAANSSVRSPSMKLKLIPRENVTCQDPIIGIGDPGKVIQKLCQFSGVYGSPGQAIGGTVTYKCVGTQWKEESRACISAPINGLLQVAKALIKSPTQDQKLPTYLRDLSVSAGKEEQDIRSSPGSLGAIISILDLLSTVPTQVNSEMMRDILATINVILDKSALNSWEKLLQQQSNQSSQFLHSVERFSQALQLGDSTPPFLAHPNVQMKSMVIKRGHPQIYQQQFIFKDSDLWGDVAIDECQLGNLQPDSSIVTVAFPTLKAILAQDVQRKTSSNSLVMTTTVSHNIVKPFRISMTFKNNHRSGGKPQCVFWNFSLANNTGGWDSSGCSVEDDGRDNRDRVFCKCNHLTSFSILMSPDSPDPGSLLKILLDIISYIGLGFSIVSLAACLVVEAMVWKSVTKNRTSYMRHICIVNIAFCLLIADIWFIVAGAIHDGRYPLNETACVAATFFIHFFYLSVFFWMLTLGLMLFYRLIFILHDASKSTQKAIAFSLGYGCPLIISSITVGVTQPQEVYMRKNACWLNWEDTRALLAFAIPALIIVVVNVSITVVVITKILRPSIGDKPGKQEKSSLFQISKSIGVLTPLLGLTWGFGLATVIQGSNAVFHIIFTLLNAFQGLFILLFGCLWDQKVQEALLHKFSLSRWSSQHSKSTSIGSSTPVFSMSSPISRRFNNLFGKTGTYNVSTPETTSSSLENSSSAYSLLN


Assays:
[1] = target: T1, full-length mGPR116 (HEK293 clone 3C); assay: Calcium transient assay, full-length mGPR116 stably expressed in HEK293 (clone 3C); format: cell-based; conditions: for activation of the mouse full-length receptor (in words): calcium flux assays, Figure 3F
Method: (§1) For some constructs, stable populations were generated by treating the cells with G418. After complete selection of resistant cells, these were used in assays. Stable HEK293 clones for full-length hGPR116 (clone A6) and mGPR116 (clone 3C) were described earlier ([Brown et al., 2017]).
(§2) HEK293 cells were seeded in 384-well plates (Greiner, #781946) at 30,000 cells/well. Medium was removed the following day and cells were loaded for 2 hr at 37°C, 5% CO2 with 20 µl Calcium 6 loading buffer (Molecular Devices, Cat# R8191): 1× HBSS (Gibco, Cat# 14065.049) containing 20 mM HEPES (Gibco, Cat#15630) and 2.5 mM probenecid (Sigma, Cat# P8761). Plates were then transferred to a FDSS7000 fluorescence plate reader (HAMAMATSU, Japan) and Ca^2+ responses were measured in real time using a CCD camera with excitation 480 nm/emission 540 nm. Prior to stimulation, baseline measurements were recorded over 5 s (Fmin). For stimulation, 20 µl of test compounds prepared 2× in HBSS containing 20 mM HEPES were dispensed. Fluorescence was read over 1–1.5 min. Maximum fluorescence (Fmax) was determined and normalized to baseline. Data are reported as ∆F/F = (Fmax – Fmin)/Fmin. Adequate response of the endogenous M3R was verified for each transfection, using carbachol at 100 µM and following the same procedure as for the peptide activation.
(§3) Concentration response curves were analyzed using GraphPad Prism 9.2.0. Potency was determined using a nonlinear regression model with variable slope, and statistical significance was determined using a one-way ANOVA followed by Dunnett’s multiple comparison test or a TTEST for comparison of two data sets (*p<0.05, **p<0.01, ***p<0.001, ****p<0.0001, ns, not significant).

[2] = target: T2, full-length hGPR116 (HEK293 clone A6); assay: Calcium transient assay, full-length hGPR116 stably expressed in HEK293 (clone A6); format: cell-based; conditions: calcium transients, hFL clone A6, Figure 3-figure supplement 2 / Figure 7A
Method: as §1, §2, §3

[3] = target: T3, mouse GPR116 full-length, V5 tagged, clone 1D8 (mouse)

Molecule | activation of the human full-length receptor (in words) [2] | activation of the mouse full-length receptor (in words) [1] | EC50 of receptor activation (calcium transients), HEK293 cells stably expressing the receptor [3] [µM] | further results
TSFSILMSPD [GAP10] | – | – | – | EC50 (uM) n=1 ([1]; calcium transient assay, HEK293 clone 3C, Fig 3F, independent experiment n=1 (mean of quadruplicate)): 16.0 µM; EC50 (uM) n=2 ([1]; calcium transient assay, HEK293 clone 3C, Fig 3F, independent experiment n=2 (mean of quadruplicate)): 8.6 µM; EC50 (uM) n=3 ([1]; calcium transient assay, HEK293 clone 3C, Fig 3F, independent experiment n=3 (mean of quadruplicate)): 6.9 µM
TSFSILASPD [GAP10-POS7] | failed to activate | failed to activate | – | –
CCCC[C@H](NC(=O)[C@H](CC(C)C)NC(=O)[C@@H](NC(=O)[C@H](CO)NC(=O)[C@H](C)NC(=O)[C@H](CO)NC(=O)[C@@H](N)[C@@H](C)O)[C@@H](C)CC)C(=O)N[C@@H](CO)C(=O)N1CCC[C@H]1C(=O)N[C@@H](CC(=O)O)C(=O)O [GAP10-POS3] (H-TSASIL[Nle]SPD-OH; N-terminus and C-terminus assumed) | failed to activate | failed to activate | – | EC50 ([1]; calcium transient assay, HEK293 clone 3C, Fig 3F, independent experiment n=1 (mean of quadruplicate), read-out: EC50 (uM) n=1): > 100 µM; EC50 ([1]; calcium transient assay, HEK293 clone 3C, Fig 3F, independent experiment n=2 (mean of quadruplicate), read-out: EC50 (uM) n=2): > 100 µM; EC50 ([1]; calcium transient assay, HEK293 clone 3C, Fig 3F, independent experiment n=3 (mean of quadruplicate), read-out: EC50 (uM) n=3): > 100 µM; EC50 ([1]; calcium transient assay, HEK293 clone 3C, Fig 3F, mean of n=2-3 independent experiments, read-out: EC50 (uM) mean): > 100 µM
CCCC[C@H](NC(=O)[C@H](C)NC(=O)[C@@H](NC(=O)[C@H](CO)NC(=O)[C@H](Cc1ccccc1)NC(=O)[C@H](CO)NC(=O)[C@@H](N)[C@@H](C)O)[C@@H](C)CC)C(=O)N[C@@H](CO)C(=O)N1CCC[C@H]1C(=O)N[C@@H](CC(=O)O)C(=O)O [GAP10-POS6] (H-TSFSIA[Nle]SPD-OH; N-terminus and C-terminus assumed) | failed to activate | failed to activate | – | –
TSFSIL[Nle]SPD [GAP10] | – | – | 25 | –

Continued, in another order:

activation of the human full-length receptor (in words) [2] | activation of the mouse full-length receptor (in words) [1] | EC50 of receptor activation (calcium transients), HEK293 cells stably expressing the receptor [3] [µM] | Molecule | further results
– | – | 17 | PSFSIL[Nle]SPD [GAP10-Pro1] | –
– | – | 107 | TSFSIL[Nle]SPDSPDP [GAP14] | –
